Here are results for ten compounds from patent publication US20100173834A1, “CYCLIC PEPTIDE MELANOCORTIN RECEPTOR LIGANDS” (priority 2007, published 2010).

Where a SMILES comes first, the peptide text is derived from it. Bridges are numbered along the chain shown (N, C = ends). [ ]: non-standard residue; d: D form.

Assay [1] concerns the target human melanocortin 1 receptor (human) (UniProt Q01726). As to the kind of experiment: cell-based or functional assay.
The target of assay [2] is human melanocortin 3 receptor (human) (UniProt P41968). The assay is described as follows: cell-based or functional assay.
Sequence of human melanocortin 3 receptor (human) (P41968 whole entry): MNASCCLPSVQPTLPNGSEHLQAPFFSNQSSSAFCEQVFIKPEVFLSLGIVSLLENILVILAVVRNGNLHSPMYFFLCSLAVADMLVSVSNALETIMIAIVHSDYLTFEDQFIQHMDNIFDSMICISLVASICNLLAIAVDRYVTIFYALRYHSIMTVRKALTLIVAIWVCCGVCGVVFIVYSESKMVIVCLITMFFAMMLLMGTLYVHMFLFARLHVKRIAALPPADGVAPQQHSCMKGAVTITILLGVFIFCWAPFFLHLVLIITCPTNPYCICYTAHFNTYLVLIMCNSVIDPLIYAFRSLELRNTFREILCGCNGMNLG
Assay [3] deals with human melanocortin 4 receptor (human) (UniProt P32245). As to the kind of experiment: cell-based or functional assay.
Sequence of human melanocortin 4 receptor (human) (P32245 whole entry): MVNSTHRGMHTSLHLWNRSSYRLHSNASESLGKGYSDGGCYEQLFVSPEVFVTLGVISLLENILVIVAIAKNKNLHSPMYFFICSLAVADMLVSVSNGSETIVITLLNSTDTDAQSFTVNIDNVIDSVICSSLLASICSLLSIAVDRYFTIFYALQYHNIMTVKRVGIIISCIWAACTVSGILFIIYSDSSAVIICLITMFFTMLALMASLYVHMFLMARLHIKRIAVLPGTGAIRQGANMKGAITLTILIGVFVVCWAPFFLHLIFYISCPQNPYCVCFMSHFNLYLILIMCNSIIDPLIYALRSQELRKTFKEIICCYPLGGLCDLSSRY
The target of assay [4] is human melanocortin 5 receptor (human) (UniProt P33032). The assay is described as follows: cell-based or functional assay.
Sequence of human melanocortin 5 receptor (human) (P33032 whole entry): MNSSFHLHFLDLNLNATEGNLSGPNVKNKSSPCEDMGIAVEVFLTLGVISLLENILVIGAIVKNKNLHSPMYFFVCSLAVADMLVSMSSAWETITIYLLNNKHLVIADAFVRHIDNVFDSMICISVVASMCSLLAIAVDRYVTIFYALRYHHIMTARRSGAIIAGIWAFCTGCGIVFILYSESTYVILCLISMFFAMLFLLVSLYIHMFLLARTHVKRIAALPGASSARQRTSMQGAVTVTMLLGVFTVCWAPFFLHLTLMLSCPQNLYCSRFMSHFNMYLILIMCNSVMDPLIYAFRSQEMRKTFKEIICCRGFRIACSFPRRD
For assay [5], the target named is human melanocortin 3 receptor (human) (UniProt P41968). The assay is described as follows: competitive displacement of [125I]-NDP-alpha-MSH, membranes of CHO-K1 cells expressing hMC3-R. (In a radioligand displacement assay an active substance lowers the binding of a labelled ligand.)
Assay [6] addresses T1, hMC3-R (Homo sapiens, UniProt P41968).
T1 construct: expressed in transfected cells; host or cells: CHO-K1
The assay is described as follows: Radioligand binding assay, hMC3-R. The protocol:
(§1) The pellets were resuspended in the same buffer and centrifuged at 50,000 g for 10 minutes at approximately 4° C. The washed pellets containing the cellular membranes were stored at approximately −80° C.
(§2) Filters were washed three times with 50 mM Tris-HCl at pH 7.4 at a temperature of approximately 0-4° C. and then assayed for radioactivity using a Packard Topcount® scintillation counter (GMI, Inc., Ramsey, Minn.).

The target in assay [7] is T2, hMC4-R (Homo sapiens, UniProt P32245).
T2 construct: expressed in transfected cells; host or cells: CHO-K1
T2 sequence (P32245 whole entry): as the sequence (P32245 whole entry) above
The assay is described as follows: Radioligand binding assay, hMC4-R. How it is done:
as §1, §2

Assay [8] deals with T3, hMC5-R (Homo sapiens, UniProt P33032).
T3 construct: expressed in transfected cells; host or cells: CHO-K1
T3 sequence (P33032 whole entry): as the sequence (P33032 whole entry) above
The assay is described as follows: Radioligand binding assay, hMC5-R. How it is done:
(§3) The CHO-K1 cells expressing the desired hMC-R receptor type were sonicated (Branson, Danbury, Conn.) (etting 7, approximately 30 sec) in ice-cold 50 mM Tris-HCl at pH 7.4 and then centrifuged at 39,000 g for 10 minutes at approximately 4° C. The pellets were resuspended in the same buffer and centrifuged at 50,000 g for 10 minutes at approximately 4° C. The washed pellets containing the cellular membranes were stored at approximately −80° C.
as §2

Assay [9] addresses T4, hMC1-R (Homo sapiens, UniProt Q01726). As to the kind of experiment: Radioligand binding assay, hMC1-R. The arrangement: expressed in transfected cells; host or cells: CHO-K1. The protocol: as §3, §2
Assay [10] has as its target T1, hMC3-R. The assay is described as follows: Cyclic AMP bioassay, hMC3-R. The class given is cell-based.
Method: (§4) Intracellular cyclic AMP (cAMP) levels were determined by an electrochemiluminescence (ECL) assay (Meso Scale Discovery, Gaithersburg, Md.) (referred to hereinafter as “MSD”). […] Transgenic CHO-K1 cells stably expressing hMC receptor subtypes 1, 3, 4 or 5 were dispensed at a density of approximately 7,000 cells/well in 384-well Multi-Array plates (MSD) containing integrated carbon electrodes and coated with anti-cAMP antibody. Increasing concentrations of the test compounds were added and the cells were incubated for approximately 40 minutes at approximately 37° C. […] At the end of the second incubation period read buffer (Tris-buffered solution containing an ECL co-reactant and Triton X-100 at ph 7.8) was added and the cAMP levels in the cell lysates were immediately determined by ECL detection with a Sector Imager 6000 reader® (MSD). Data were analyzed using a computer-assisted non-linear regression analysis (XL fit; IDBS) and reported as either an EC50 value or a Kb value.
(§5) The Kb value reflects the potency of an antagonist and is determined by Schild analysis. In brief, concentration-response curves of an agonist are carried out in the presence of increasing concentrations of an antagonist. […] It is calculated by extrapolating the line on a Schild plot to zero on the y-axis.
Assay [11] has as its target T2, hMC4-R. As to the kind of experiment: Cyclic AMP bioassay, hMC4-R. The class given is cell-based.
Method: as §4, §5
Assay [12] addresses T3, hMC5-R. As to the kind of experiment: Cyclic AMP bioassay, hMC5-R. The class given is cell-based.
Method: as §4, §5
Assay [13] addresses T4, hMC1-R. The assay is described as follows: Cyclic AMP bioassay, hMC1-R.
Method: as §4, §5

T1 sequence (P41968 whole entry): as the sequence (P41968 whole entry) above
T4 sequence (Q01726 whole entry): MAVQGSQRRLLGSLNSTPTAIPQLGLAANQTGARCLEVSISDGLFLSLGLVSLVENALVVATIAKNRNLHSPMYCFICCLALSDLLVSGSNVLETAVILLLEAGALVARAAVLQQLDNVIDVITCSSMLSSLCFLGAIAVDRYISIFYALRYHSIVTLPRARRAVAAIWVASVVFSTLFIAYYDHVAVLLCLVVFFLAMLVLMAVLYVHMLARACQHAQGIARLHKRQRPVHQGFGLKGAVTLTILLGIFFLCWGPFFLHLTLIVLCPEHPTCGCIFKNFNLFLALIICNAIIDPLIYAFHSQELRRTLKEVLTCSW
Sequence of human melanocortin 1 receptor (human) (Q01726 whole entry): as above

Regarding “Ac-1-Nal-Arg-c(Cys-D-Ala-His-D-Phe-Arg-Trp-Cys)-NH2 (peptide)”, the EC50, cAMP bioassay (ECL) in CHO-K1 cells expressing hMC1-R in assay [1] was determined as 8.67 nM. In [2], this compound came in with an EC50, cAMP bioassay (ECL) in CHO-K1 cells expressing hMC3-R of 4.21 nM. Besides, the EC50, cAMP bioassay (ECL) in CHO-K1 cells expressing hMC4-R in assay [3] turned out to be 0.363 nM. Besides, in assay [4], the EC50, cAMP bioassay (ECL) in CHO-K1 cells expressing hMC5-R was determined as 1320 nM.

The Ki is a measure of affinity in units of concentration, obtained from inhibition or displacement. Compound “Ac-Tyr-Arg-c(Cys-D-Ala-His-D-Phe-Arg-Trp-Cys)-NH2 (peptide)” gave an EC50, cAMP bioassay (ECL) in CHO-K1 cells expressing hMC3-R in assay [2] of 2.39 nM. The compound further showed an EC50, cAMP bioassay (ECL) in CHO-K1 cells expressing hMC5-R in [4] of 1540 nM. The compound further came in with an inhibition constant Ki in assay [5] of 21.2 nM.

In the case of `CC(=O)N[C@@H](Cc1ccccc1)C(=O)N[C@@H](CCCNC(=N)N)C(=O)N[C@H]1CSSC[C@@H](C(N)=O)NC(=O)[C@H](Cc2c[nH]c3ccccc23)NC(=O)[C@H](CCCNC(=N)N)NC(=O)[C@@H](Cc2ccccc2)NC(=O)[C@H](Cc2c[nH]cn2)NC(=O)[C@@H](C)NC1=O` [Ac-Phe-Arg-c(Cys-D-Ala-His-D-Phe-Arg-Trp-Cys)-NH2] (Ac-FRC[dA]H[dF]RWC-NH2; disulfide 3-9), the Ki at hMC3-R [6] stood at 14.8 nM; on hMC4-R [7] it was 2.34 nM; at hMC5-R [8], 491 nM; on hMC1-R [9], 1.48 nM.

In [1], “Ac-2-Nal-Arg-c(Cys-D-Ala-His-D-Phe-Arg-Trp-Cys)-NH2 (peptide)” came in with an EC50, cAMP bioassay (ECL) in CHO-K1 cells expressing hMC1-R of 9.66 nM. Also, the EC50, cAMP bioassay (ECL) in CHO-K1 cells expressing hMC3-R in assay [2] was found to be 6.11 nM. The EC50, cAMP bioassay (ECL) in CHO-K1 cells expressing hMC4-R in assay [3] was 0.275 nM. In addition, the EC50, cAMP bioassay (ECL) in CHO-K1 cells expressing hMC5-R in assay [4] is 1730 nM.

As a reminder, the EC50 is the concentration at which the effect is half-maximal. As for `CC(=O)N[C@@H](Cc1c[nH]c2ccccc12)C(=O)N[C@@H](CCCNC(=N)N)C(=O)N[C@H]1CSSC[C@@H](C(N)=O)NC(=O)[C@H](Cc2c[nH]c3ccccc23)NC(=O)[C@H](CCCNC(=N)N)NC(=O)[C@@H](Cc2ccccc2)NC(=O)[C@H](Cc2c[nH]cn2)NC(=O)[C@@H](C)NC1=O` [Ac-Trp-Arg-c(Cys-D-Ala-His-D-Phe-Arg-Trp-Cys)-NH2] (Ac-WRC[dA]H[dF]RWC-NH2; disulfide 3-9), the Ki amounted to 42 nM on hMC3-R [6], 2.25 nM at hMC4-R [7], 1470 nM at hMC5-R [8] and 4.7 nM on hMC1-R [9]. The half-maximal effective concentration (EC50) is 3.95 nM at hMC3-R [10], 0.219 nM on hMC4-R [11], 2580 nM on hMC5-R [12] and 5.78 nM at hMC1-R [13].

With `CC(=O)N[C@@H](Cc1ccc(O)cc1)C(=O)N[C@@H](CCCNC(=N)N)C(=O)N[C@H]1CSSC[C@@H](C(N)=O)NC(=O)[C@H](Cc2c[nH]c3ccccc23)NC(=O)[C@H](CCCNC(=N)N)NC(=O)[C@@H](Cc2ccccc2)NC(=O)[C@H](Cc2c[nH]cn2)NC(=O)[C@@H](C)NC1=O` [Ac-Tyr-Arg-c(Cys-D-Ala-His-D-Phe-Arg-Trp-Cys)-NH2], the affinity at hMC5-R [8], expressed as Ki, was 714 nM. Also, at hMC5-R [12], a half-maximal response (EC50) required 1540 nM.

Turning to `CC(=O)N[C@@H](Cc1ccc2ccccc2c1)C(=O)N[C@@H](CCCNC(=N)N)C(=O)N[C@H]1CSSC[C@@H](C(N)=O)NC(=O)[C@H](Cc2c[nH]c3ccccc23)NC(=O)[C@H](CCCNC(=N)N)NC(=O)[C@@H](Cc2ccccc2)NC(=O)[C@H](Cc2c[nH]cn2)NC(=O)[C@@H](C)NC1=O` [Ac-2-Nal-Arg-c(Cys-D-Ala-His-D-Phe-Arg-Trp-Cys)-NH2], the Ki is 34.9 nM at hMC3-R [6], 2.02 nM on hMC4-R [7], 864 nM on hMC5-R [8] and 6.09 nM at hMC1-R [9]. The EC50 on hMC3-R [10] is 6.11 nM; on hMC4-R [11], 0.275 nM; on hMC5-R [12], 1730 nM; on hMC1-R [13] it was 9.66 nM.

On to “Ac-Trp-Arg-c(Cys-D-Ala-His-D-Phe-Arg-Trp-Cys)-NH2 (peptide)”, for which the EC50, cAMP bioassay (ECL) in CHO-K1 cells expressing hMC1-R in [1] stood at 5.78 nM. The EC50, cAMP bioassay (ECL) in CHO-K1 cells expressing hMC3-R in [2] amounted to 3.95 nM. Moreover, the EC50, cAMP bioassay (ECL) in CHO-K1 cells expressing hMC4-R in assay [3] came out at 0.219 nM. In assay [4], the EC50, cAMP bioassay (ECL) in CHO-K1 cells expressing hMC5-R stood at 2580 nM.

For `CC(=O)N[C@@H](Cc1c(F)c(F)c(F)c(F)c1F)C(=O)N[C@@H](CCCNC(=N)N)C(=O)N[C@H]1CSSC[C@@H](C(N)=O)NC(=O)[C@H](Cc2c[nH]c3ccccc23)NC(=O)[C@H](CCCNC(=N)N)NC(=O)[C@@H](Cc2ccccc2)NC(=O)[C@H](Cc2c[nH]cn2)NC(=O)[C@@H](C)NC1=O` [Ac-Pff-Arg-c(Cys-D-Ala-His-D-Phe-Arg-Trp-Cys)-NH2], the inhibition constant (Ki) on hMC3-R [6] is 1.33 nM; on hMC4-R [7] it was 1.95 nM; on hMC5-R [8] it was 786 nM; on hMC1-R [9], 0.323 nM.

Take `CC(=O)N[C@@H](Cc1cccc2ccccc12)C(=O)N[C@@H](CCCNC(=N)N)C(=O)N[C@H]1CSSC[C@@H](C(N)=O)NC(=O)[C@H](Cc2c[nH]c3ccccc23)NC(=O)[C@H](CCCNC(=N)N)NC(=O)[C@@H](Cc2ccccc2)NC(=O)[C@H](Cc2c[nH]cn2)NC(=O)[C@@H](C)NC1=O` [Ac-1-Nal-Arg-c(Cys-D-Ala-His-D-Phe-Arg-Trp-Cys)-NH2]: the inhibition constant (Ki) on hMC3-R [6] was 36.4 nM; on hMC4-R [7], 1.53 nM; at hMC5-R [8] it was 888 nM; at hMC1-R [9], 6.27 nM. The concentration for a half-maximal effect (EC50) on hMC3-R [10] was determined as 4.21 nM; on hMC4-R [11], 0.363 nM; at hMC5-R [12], 1320 nM; on hMC1-R [13], 8.67 nM.
